Source: paper PMC12797170, “Potent Competitive Inhibitors of Ecto-5′-nucleotidase (CD73) based on 6‑(Het)aryl-7-deazapurine Ribonucleoside 5′‑O‑Bisphosphonates” (ACS Pharmacology & Translational Science, 2025)
Converted amounts (≈) assume the structure as drawn. Where two headings read alike, the source gives them in different places.

Assays:
[1] = Plasma protein binding, equilibrium dialysis, human plasma; type: in vitro ADME; conditions: undiluted plasma
[2] = test system: CCRF-CEM; assay: In vitro cytotoxic activity; type: cell-based; conditions: Homo sapiens
Experimental: (§1) All the compounds were also tested for their in vitro cytotoxic activity on a small panel of four cancer cell lines (CCRF-CEM, HepG2, HeLa S3, HL-60) and nonmalignant human dermal fibroblasts (NHDF).

[3] = test system: HL-60; assay: In vitro cytotoxic activity; type: cell-based; conditions: Homo sapiens
Experimental: as §1

[4] = test system: HeLa S3; assay: In vitro cytotoxic activity; type: cell-based; conditions: Homo sapiens
Experimental: as §1

[5] = test system: HepG2; assay: In vitro cytotoxic activity; type: cell-based; conditions: Homo sapiens
Experimental: as §1

[6] = test system: nonmalignant human dermal fibroblasts (NHDF); assay: In vitro cytotoxic activity; type: cell-based
Experimental: as §1

[7] = biological target: T1, recombinant human CD73 (hCD73) (Homo sapiens, UniProt P21589); assay: CD73 activity assay on recombinant human CD73; type: biochemical; conditions: ΔGexp = RT ln Ki
T1 sequence (P21589 27-574): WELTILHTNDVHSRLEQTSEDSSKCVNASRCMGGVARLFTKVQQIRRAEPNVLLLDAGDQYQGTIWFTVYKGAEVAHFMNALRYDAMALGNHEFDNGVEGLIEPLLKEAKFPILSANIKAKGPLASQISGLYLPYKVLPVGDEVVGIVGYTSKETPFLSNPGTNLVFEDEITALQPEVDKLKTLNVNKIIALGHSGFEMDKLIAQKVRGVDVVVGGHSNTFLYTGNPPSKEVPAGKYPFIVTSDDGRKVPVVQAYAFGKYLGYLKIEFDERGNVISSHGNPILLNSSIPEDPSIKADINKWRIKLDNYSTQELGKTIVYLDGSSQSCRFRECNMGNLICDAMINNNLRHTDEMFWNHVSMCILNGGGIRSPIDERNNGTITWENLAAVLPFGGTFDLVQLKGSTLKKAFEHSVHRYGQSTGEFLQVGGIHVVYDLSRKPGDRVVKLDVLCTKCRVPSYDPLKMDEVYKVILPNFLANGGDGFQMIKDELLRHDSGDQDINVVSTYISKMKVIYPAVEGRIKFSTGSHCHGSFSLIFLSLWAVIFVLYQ

[8] = Plasma stability assay, mouse plasma
[9] = Plasma protein binding, mouse plasma; type: in vitro ADME
[10] = In vivo pharmacokinetic study, intravenous; parameters: species or system male CD-1 mice; conditions: for half-life: male, footnote: t1/2 stability in plasma, text: half-life in mouse PK
How it was run: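 Single intravenous dose in male CD-1 mice (n=3, 9 weeks, 29.2–33.7 g). Plasma levels measured by LC-MS/MS at 5, 15, 30, 60, 120, 240 and 480 min.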

[11] = Kinetic solubility in PBS; type: physicochemical; conditions: phosphate-buffered saline, pH 7.4, aqueous buffer, kinetic from dmso stock
How it was run: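 DMSO stocks diluted into PBS pH 7.4 to 100 μM and shaken 2 h at room temperature in duplicate, then filtered by centrifugation. Filtrates diluted 1:99 in 50% acetonitrile. Quantified by Echo-MS against calibration standards spanning 0.05–4 μM.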

[12] = Plasma stability assay, human plasma
[13] = Microsomal stability assay, mouse liver microsomes; type: in vitro ADME; conditions: for Mics (m) comp remaining 60 min: 10 μM; for microsomal CLint at 10 µM: pooled liver microsomes, pH 7.4, read-out: Mics (m) CLint
[14] = in vitro; conditions: human, plasma
[15] = in vitro; conditions: mouse, plasma
[16] = Microsomal stability assay, human liver microsomes; type: in vitro ADME; conditions: for microsomal CLint at 10 µM: pooled liver microsomes, pH 7.4, read-out: Mics (hu) CLint
[17] = Tables 1 and 3, human plasma as printed in footnote, read-out: fup, fraction unbound in human plasma
[18] = human plasma protein binding, read-out: PPB (hu) (converted)
[19] = mouse, plasma, 1 mg/kg, male CD-1 mice, intravenous, single dose, read-out: Cl (obs), observed clearance
[20] = mouse, plasma, mouse plasma protein binding, read-out: PPB (m) (converted)
[21] = CD-1, mouse, plasma, iv, 1 mg/kg, intravenous

SMILES: O=P(O)(O)CP(=O)(O)OC[C@H]1O[C@@H](n2ccc3c(-c4cc5ccccc5c5ccccc45)ncnc32)[C@H](O)[C@@H]1O [4A.11]
- fraction unbound at 4 h, 100 µM [1, 17]: 0.31
- fraction unbound at 4 h, 100 µM [1, 18]: 0.013
- IC50 [2]: > 10 µM
- IC50 [3]: > 10 µM
- IC50 [4]: > 10 µM
- IC50 [5]: > 10 µM
- IC50 [6]: > 10 µM
- dG_exp, experimental binding free energy [7]: –13.1 kcal/mol
- half-life at 10 µM [8]: > 2 h
- fraction unbound at 4 h, 100 µM ([9]; mouse plasma protein binding, read-out: PPB (m) (converted)): 0.222
- clearance ([10]; in vivo PK in mice, unit not given): moderate clearance
- half-life ([10]; CD-1, 1 mg/kg, intravenous): 1.65 h
- clearance [10, 19]: 2 mL/min/kg
- solubility at 2 h [11]: 68 µM (≈ 39.8 µg/mL)
- half-life at 10 µM [12]: > 2 h

SMILES: Nc1nc(-c2cccc3ccccc23)c2ccn([C@@H]3O[C@H](COP(=O)(O)CP(=O)(O)O)[C@@H](O)[C@H]3O)c2n1 [11C.6]
- Mics (m) comp remaining 60 min [13]: 102%
- microsomal CLint at 10 µM [13]: < 1 µL/min/mg
- fraction unbound at 4 h, 100 µM [1, 18]: 0.067
- IC50 [2]: > 10 µM
- IC50 [3]: > 10 µM
- IC50 [4]: > 10 µM
- IC50 [5]: > 10 µM
- IC50 [6]: > 10 µM
- dG_exp, experimental binding free energy [7]: –13.9 kcal/mol
- fraction unbound at 4 h, 100 µM ([9]; mouse, plasma, Tables 2 and 4, mouse plasma, read-out: fup, fraction unbound in mouse plasma): 0.56
- fraction unbound at 4 h, 100 µM [9, 20]: 0.564
- half-life at 10 µM [14]: > 2 h
- half-life [10, 21]: 2.78 h
- clearance [10, 19]: 2.3 mL/min/kg
- solubility at 2 h [11]: > 100 µM
- half-life at 10 µM [15]: > 2 h
- Mics (hu) comp remaining 60 min ([16]; 10 μM): 92%
- microsomal CLint at 10 µM [16]: 3 µL/min/mg

SMILES: O=P(O)(O)CP(=O)(O)OC[C@H]1O[C@@H](n2ccc3c(-c4ccnc5ccccc45)ncnc32)[C@H](O)[C@@H]1O [4A.17]
- Mics (m) comp remaining 60 min [13]: 79%
- microsomal CLint at 10 µM [13]: 9 µL/min/mg
- fraction unbound at 4 h, 100 µM [1, 17]: 0.8
- fraction unbound at 4 h, 100 µM [1, 18]: 0.257
- IC50 [2]: > 10 µM
- IC50 [3]: > 10 µM
- IC50 [4]: > 10 µM
- IC50 [5]: > 10 µM
- IC50 [6]: > 10 µM
- dG_exp, experimental binding free energy [7]: –14.3 kcal/mol
- fraction unbound at 4 h, 100 µM [9, 20]: 0.8
- half-life at 10 µM [14]: > 2 h
- half-life [10, 21]: 2.15 h
- clearance [10, 19]: 7.2 mL/min/kg
- solubility at 2 h [11]: > 100 µM
- half-life at 10 µM [15]: > 2 h
- microsomal CLint at 10 µM [16]: < 1 µL/min/mg
